Structures are written as SMILES. Read-outs that look alike come from different tables or passages of the source.

The experiment has as its system αvβ3 positive M21 Melanoma cells. The experiment is described as follows: Cell adhesion inhibition assay on vitronectin coated plates. In kind it is cell-based. Particulars: Homo sapiens.

Experimental: Cell adhesion inhibition study was done on plates coated with vitronectin using human melonoma cell line M21. […] After about 1 hour incubation, the wells were washed, and the cells that adhered were stained with a solution of crystal violet and the optical density (OD) at about 590 nm was measured. The OD measured was proportional to the number of cells bound to the vitronectin plate and was plotted against the concentration of component 10 on the surface of the NPs in different formulations to calculate the IC50.
FIG. 8 schematically depicts the cell adhesion assay wherein M21 human melanoma cells, which express αvβ3, were mixed with liposomes covalently conjugated to an integrin antagonist (ligand) or to ligand alone. The cells were then placed on vitronectin plates, washed and stained. The number of bound cells was then counted using a plate counter.

The IC50 is the concentration that inhibits the measured activity by half. Regarding `NCCS(=O)(=O)N[C@@H](CNC(=O)c1ccc(OCCNC2=NCCCN2)cc1)C(=O)O` [Liposome 10, 4-[2-(3,4,5,6-Tetrahydropyrimidin-2-ylamino)ethyloxy]benzoyl-2-(S)-aminoethylsulfonamido-β-alanine], the IC50 is, setting by setting: (FIG. 9, M21 cells on vitronectin, read-out: IC50 cell adhesion (FIG. 9), antagonist alone) 500 µM; (M21 cells on vitronectin coated plates, monomeric ligand, read-out: IC50 for inhibition of cell adhesion, free ligand) 64 µM.

These data come from patent US7803399B2, “Delivery system for nucleic acids” (The Scripps Research Institute, priority 2001, dated 2010).
